Experimental data reported in paper PMC6242839 (Nature Communications, 2018).
Values after ≈ are worked out from the molar mass of the structure shown. Where two headings read alike, the source gives them in different places.

What was measured:
[1] = test system: B. anthracis Sterne strain; experiment: microbe, parasite or virus in culture; assay type: cell-based; details: Bacillus anthracis, 16 h, read-out: MIC B. anthracis Sterne
[2] = test system: B. anthracis pathogenic strain (human isolate); experiment: microbe, parasite or virus in culture; assay type: cell-based; details: Bacillus anthracis, 16 h, read-out: MIC B. anthracis Pathogenic
[3] = test system: B. anthracis ovine strain (animal isolate); experiment: microbe, parasite or virus in culture; assay type: cell-based; details: Bacillus anthracis, 16 h, read-out: MIC B. anthracis Ovine
E. faecalis (ATCC 29212) = experiment: microbe, parasite or virus in culture; assay type: cell-based; details: Enterococcus faecalis, ATCC29212, 16 h, read-out: MIC E. faecalis
B. cereus (ATCC 10876) = experiment: microbe, parasite or virus in culture; assay type: cell-based; details: Bacillus cereus, ATCC10876, 16 h, read-out: MIC B. cereus
B. cereus ATCC 14579 [4] = experiment: microbe, parasite or virus in culture; assay type: cell-based, Bacillus cereus
B. cereus ATCC 14579 [5] = experiment: microbe, parasite or virus in culture; assay type: cell-based, Bacillus cereus; remark: listed apart in the source
[6] = test system: B. cereus ATCC 14579 strains resistant to known antibiotics; experiment: microbe, parasite or virus in culture; assay type: cell-based, Bacillus cereus; details: Bacillus cereus, ATCC14579
[7] = test system: B. subtilis 168 and knockout mutants; experiment: microbe, parasite or virus in culture; assay type: cell-based; details: Bacillus subtilis
[8] = test system: B. cereus ATCC 14579 mutant library; assay type: cell-based, Bacillus cereus
E. coli K12 = experiment: microbe, parasite or virus in culture; assay type: cell-based; details: Escherichia coli
E. coli K12 spheroplasts = experiment: microbe, parasite or virus in culture; assay type: cell-based, Escherichia coli; details: Escherichia coli
B. cereus ATCC 14579 [9] = experiment: microbe, parasite or virus in culture; assay type: cell-based; details: Bacillus cereus, ATCC14579
[10] = test system: B. cereus ATCC 14579 protoplasts; experiment: microbe, parasite or virus in culture; assay type: cell-based; details: Bacillus cereus, ATCC14579
S. aureus ATCC 29213 = experiment: microbe, parasite or virus in culture; assay type: cell-based; details: Staphylococcus aureus, ATCC29213
[11] = test system: S. aureus ATCC 29213 protoplasts; experiment: microbe, parasite or virus in culture; assay type: cell-based, Staphylococcus aureus; details: Staphylococcus aureus, ATCC29213
[12] = test system: B. cereus ATCC 14579 spores and vegetative cells; experiment: microbe, parasite or virus in culture; assay type: cell-based; details: Bacillus cereus
[13] = POPE LUVs, compound 50 µM
[14] = POPC LUVs, compound 50 µM
in vitro = details: human
[15] = B. subtilis 168, parental isogenic strain
[16] = course of the experiment (14 h)

CCCCCCCCCCCCO[C@H]1C[C@H](O)[C@@H](O)[C@H](C)O1 [Compound 1]
MIC [1]: 25 µM (≈ 7.91 µg/mL) | MIC [2]: 25 µM (≈ 7.91 µg/mL) | MIC [3]: 25 µM (≈ 7.91 µg/mL) | MIC (E. faecalis (ATCC 29212)): 50 µM (≈ 15.8 µg/mL) | MIC (B. cereus (ATCC 10876)): 25 µM (≈ 7.91 µg/mL) | MBC (B. cereus ATCC 14579 [4]): 32 µg/mL (≈ 101 µM) | MBC (B. cereus ATCC 14579 [4]; Bacillus cereus, ATCC14579): 16 µg/mL (≈ 50.6 µM) | MIC (B. cereus ATCC 14579 [4]; Bacillus cereus, ATCC14579): 16 µg/mL (≈ 50.6 µM) | 1000-fold reduction (T99.9) (B. cereus ATCC 14579 [5]): ≤ 60 min | MBC (B. cereus ATCC 14579 [5]): 32 µg/mL (≈ 101 µM) | MBC (B. cereus ATCC 14579 [5]; Bacillus cereus, ATCC14579): 16 µg/mL (≈ 50.6 µM) | MBC [6]: 16 µg/mL (≈ 50.6 µM) | MIC [6]: 16 µg/mL (≈ 50.6 µM) | MBC [7, 15]: 32 µg/mL (≈ 101 µM) | MIC [7, 15]: 16 µg/mL (≈ 50.6 µM) | MBC ([7]; B. subtilis ΔexpZ): 32 µg/mL (≈ 101 µM) | MIC ([7]; B. subtilis ΔexpZ): 16 µg/mL (≈ 50.6 µM) | MBC ([7]; B. subtilis ΔmtlA): 32 µg/mL (≈ 101 µM) | MIC ([7]; B. subtilis ΔmtlA): 16 µg/mL (≈ 50.6 µM) | MBC ([7]; B. subtilis ΔtreP): 16 µg/mL (≈ 50.6 µM) | MIC ([7]; B. subtilis ΔtreP): 16 µg/mL (≈ 50.6 µM) | MBC ([7]; B. subtilis ΔybbF): 16 µg/mL (≈ 50.6 µM) | MIC ([7]; B. subtilis ΔybbF): 16 µg/mL (≈ 50.6 µM) | MBC ([7]; B. subtilis ΔybdA): 32 µg/mL (≈ 101 µM) | MIC ([7]; B. subtilis ΔybdA): 16 µg/mL (≈ 50.6 µM) | MBC ([7]; B. subtilis ΔybdB): 32 µg/mL (≈ 101 µM) | MIC ([7]; B. subtilis ΔybdB): 16 µg/mL (≈ 50.6 µM) | MBC ([7]; B. subtilis ΔydhO): 32 µg/mL (≈ 101 µM) | MIC ([7]; B. subtilis ΔydhO): 16 µg/mL (≈ 50.6 µM) | MBC ([7]; B. subtilis ΔyfiB): 32 µg/mL (≈ 101 µM) | MIC ([7]; B. subtilis ΔyfiB): 32 µg/mL (≈ 101 µM) | MBC ([7]; B. subtilis ΔyfiC): 16 µg/mL (≈ 50.6 µM) | MIC ([7]; B. subtilis ΔyfiC): 16 µg/mL (≈ 50.6 µM) | MBC ([7]; B. subtilis ΔyfiM): 16 µg/mL (≈ 50.6 µM) | MIC ([7]; B. subtilis ΔyfiM): 16 µg/mL (≈ 50.6 µM) | MBC ([7]; B. subtilis ΔyfiN): 32 µg/mL (≈ 101 µM) | MIC ([7]; B. subtilis ΔyfiN): 16 µg/mL (≈ 50.6 µM) | MBC ([7]; B. subtilis ΔyflF): 32 µg/mL (≈ 101 µM) | MIC ([7]; B. subtilis ΔyflF): 16 µg/mL (≈ 50.6 µM) | MBC ([7]; B. subtilis ΔyfmR): 16 µg/mL (≈ 50.6 µM) | MIC ([7]; B. subtilis ΔyfmR): 16 µg/mL (≈ 50.6 µM) | MBC ([7]; B. subtilis ΔygaD): 16 µg/mL (≈ 50.6 µM) | MIC ([7]; B. subtilis ΔygaD): 16 µg/mL (≈ 50.6 µM) | MBC ([7]; B. subtilis ΔyhaQ): 16 µg/mL (≈ 50.6 µM) | MIC ([7]; B. subtilis ΔyhaQ): 16 µg/mL (≈ 50.6 µM) | MBC ([7]; B. subtilis ΔyhcJ): 16 µg/mL (≈ 50.6 µM) | MIC ([7]; B. subtilis ΔyhcJ): 16 µg/mL (≈ 50.6 µM) | MBC ([7]; B. subtilis ΔyheH): 32 µg/mL (≈ 101 µM) | MIC ([7]; B. subtilis ΔyheH): 16 µg/mL (≈ 50.6 µM) | MBC ([7]; B. subtilis ΔyjdD): 16 µg/mL (≈ 50.6 µM) | MIC ([7]; B. subtilis ΔyjdD): 16 µg/mL (≈ 50.6 µM) | MBC ([7]; B. subtilis ΔykfD): 16 µg/mL (≈ 50.6 µM) | MIC ([7]; B. subtilis ΔykfD): 16 µg/mL (≈ 50.6 µM) | MBC ([7]; B. subtilis ΔyknU): 32 µg/mL (≈ 101 µM) | MIC ([7]; B. subtilis ΔyknU): 16 µg/mL (≈ 50.6 µM) | MBC ([7]; B. subtilis ΔykoD): 16 µg/mL (≈ 50.6 µM) | MIC ([7]; B. subtilis ΔykoD): 16 µg/mL (≈ 50.6 µM) | MBC ([7]; B. subtilis ΔykpA): 32 µg/mL (≈ 101 µM) | MIC ([7]; B. subtilis ΔykpA): 16 µg/mL (≈ 50.6 µM) | MBC ([7]; B. subtilis ΔyvcC): 32 µg/mL (≈ 101 µM) | MIC ([7]; B. subtilis ΔyvcC): 16 µg/mL (≈ 50.6 µM) | MBC ([7]; B. subtilis ΔywbA): 32 µg/mL (≈ 101 µM) | MIC ([7]; B. subtilis ΔywbA): 16 µg/mL (≈ 50.6 µM) | MBC ([7]; B. subtilis ΔywhQ): 32 µg/mL (≈ 101 µM) | MIC ([7]; B. subtilis ΔywhQ): 16 µg/mL (≈ 50.6 µM) | MBC ([7]; B. subtilis ΔyxdM): 32 µg/mL (≈ 101 µM) | MIC ([7]; B. subtilis ΔyxdM): 16 µg/mL (≈ 50.6 µM) | MBC ([7]; B. subtilis ΔyybL): 32 µg/mL (≈ 101 µM) | MIC ([7]; B. subtilis ΔyybL): 16 µg/mL (≈ 50.6 µM) | MIC of mutant library compared with the parental strain [8]: MIC values remain unchanged | MIC (E. coli K12): 256 µg/mL (≈ 809 µM) | MIC (E. coli K12 spheroplasts): 4 µg/mL (≈ 12.6 µM) | MIC (B. cereus ATCC 14579 [9]): 16 µg/mL (≈ 50.6 µM) | MIC [10]: 16 µg/mL (≈ 50.6 µM) | MIC (S. aureus ATCC 29213): 256 µg/mL (≈ 809 µM) | MIC [11]: 256 µg/mL (≈ 809 µM) | MBC ([12]; ATCC14579, 20 min): 8 µg/mL (≈ 25.3 µM) | MBC ([12]; ATCC14579, 0.5 h): 8 µg/mL (≈ 25.3 µM) | time of leakage, τL [13]: about 160 min | leakage of encapsulated carboxyfluorescein [13, 16]: ~ 100% | Lmax value obtained from the fit [14]: < 50% | time of leakage, τL [14]: about 692 min | total membrane leakage [14, 16]: ~ 30% | IC50 at 24 h (in vitro): 100 µM | IC50 at 48 h (in vitro): > 50 µM
